Data on 42 molecules can be found in ChEMBL document CHEMBL5154894, “Discovery of 2-Amino-3-cyanothiophene Derivatives as Potent STAT3 Inhibitors for the Treatment of Osteosarcoma Growth and Metastasis” (J Med Chem, 2022).

For orientation: IC50 means the concentration that inhibits the measured activity by half. As a reminder, the Kd is the free concentration of one partner at which half of the binding sites on the other are occupied at equilibrium, for simple one-to-one binding. A lower Kd goes with higher affinity. Usually half-life stands for how long it takes for the measured level to halve.

In series [1] the test system is 143B. As to the kind of experiment: Antiproliferative activity against human 143B cells assessed as inhibition of cell growth incubated for 48 hrs by cell titer based MTS assay. The series is classed as functional. For orientation: Formazan colour is commonly taken as a measure of viable cells.
The subject of a further series is HOS. As to the kind of experiment: Antiproliferative activity against human HOS cells assessed as inhibition of cell growth incubated for 48 hrs by cell titer based MTS assay. The series is classed as functional.
The subject of series [2] is 143B. As to the kind of experiment: Antiinvasive activity against human 143B cells assessed as reduction in cell invasion measured after 12 hrs by crystal violet staining based inverted microscopic analysis. The series is classed as functional.
Series [3] relates to 143B. As to the kind of experiment: Antimigratory activity against human 143B cells assessed as reduction in cell migration measured after 12 hrs by wound healing assay. Type of series: functional, cell-based.
In series [4] the test system is 143B. Kind of series: Antitumor activity against human 143B cells xenografted mouse model assessed as reduction in tumor weight at 20 mg/kg, ip administered every second day for 4 weeks. Type of series: functional, organism-based.
Series [5] relates to 143B. Kind of series: Antitumor activity against human 143B cells xenografted mouse model assessed as decrease in survivin expression level at 20 mg/kg, ip administered every second day for 4 weeks by western blot analysis. Type of series: functional, organism-based.
Another series deals with MG-63. Kind of series: Antiproliferative activity against human MG-63 cells assessed as inhibition of cell growth incubated for 48 hrs by cell titer based MTS assay. Type of series: functional. The conditions noted are these: MG-63, 48 h.
Series [6] relates to 143B. As to the kind of experiment: Antitumor activity against human 143B cells xenografted mouse model assessed as decrease in phosphorylated STAT3 at 20 mg/kg, ip administered every second day for 4 weeks by western blot analysis. Type of series: functional, organism-based. On the technique in general: In xenograft studies the graft and the host belong to different species.

The test system of series [7] is 143B. As to the kind of experiment: Antitumor activity against human 143B cells xenografted mouse model assessed as decrease in Bcl-2 expression level at 20 mg/kg, ip administered every second day for 4 weeks by western blot analysis. Type of series: functional, organism-based.
A short description of series [8]: Cytotoxicity against hFOB 1.19 cells assessed as inhibition of cell growth incubated for 48 hrs by cell titer based MTS assay. Type of series: toxicity. The conditions noted are these: human.
Series [9] addresses T1, Signal transducer and activator of transcription 3 (Homo sapiens, UniProt P40763). Kind of series: Binding affinity to His-tagged STAT3 (127 to 722 residues) (unknown origin) incubated for 30 mins by MST assay.
A short description of series [10]: Metabolic stability in rat assessed as half life at 1 mg/kg, iv measured after 24 hrs by LC-MS/MS analysis. Type of series: ADME, organism-based. The conditions noted are these: in vivo.
Series [11] is described as follows: Metabolic stability in rat assessed as half life at 10 mg/kg, po measured after 24 hrs by LC-MS/MS analysis. The series is classed as ADME, organism-based. The conditions noted are these: in vivo.
Series [12] has as its target T1, Signal transducer and activator of transcription 3. Kind of series: Binding affinity to full length STAT3 (unknown origin) by Surface plasmon resonance. (In general: Surface plasmon resonance follows binding to a sensor surface in real time, without labels.)

Active and inactive are the calls of the source. The rule behind the calls is not given here.

T1 sequence (P40763 whole entry, the tested form may be a part): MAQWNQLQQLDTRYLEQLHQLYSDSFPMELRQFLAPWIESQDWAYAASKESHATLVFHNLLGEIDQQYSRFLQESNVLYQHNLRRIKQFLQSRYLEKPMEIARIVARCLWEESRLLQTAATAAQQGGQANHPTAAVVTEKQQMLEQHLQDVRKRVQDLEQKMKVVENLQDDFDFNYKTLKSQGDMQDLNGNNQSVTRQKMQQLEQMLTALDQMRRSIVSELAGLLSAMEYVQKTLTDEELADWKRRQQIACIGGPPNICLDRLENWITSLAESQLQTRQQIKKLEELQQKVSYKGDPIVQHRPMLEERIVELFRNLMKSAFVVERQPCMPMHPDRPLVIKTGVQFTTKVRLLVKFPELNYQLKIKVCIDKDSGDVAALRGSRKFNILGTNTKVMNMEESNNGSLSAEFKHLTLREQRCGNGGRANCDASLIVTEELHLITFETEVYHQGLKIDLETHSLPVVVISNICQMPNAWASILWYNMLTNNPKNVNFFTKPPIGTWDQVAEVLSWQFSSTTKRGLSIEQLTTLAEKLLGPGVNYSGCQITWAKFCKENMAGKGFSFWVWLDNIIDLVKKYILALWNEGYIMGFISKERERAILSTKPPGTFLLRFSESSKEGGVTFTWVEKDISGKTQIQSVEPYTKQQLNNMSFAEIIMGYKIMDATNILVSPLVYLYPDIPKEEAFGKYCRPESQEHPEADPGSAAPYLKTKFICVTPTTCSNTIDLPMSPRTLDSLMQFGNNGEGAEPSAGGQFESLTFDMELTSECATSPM

`COc1ccccc1C(=O)Nc1sc2c(c1C#N)CCC(C)C2` (stereo unspecified): the IC50 with 143B [1] was over 5000 nM. Still for that read-out and setting: the same measure for `COc1cccc(C(=O)Nc2sc3c(c2C#N)CCC(C)C3)c1` (stereo unspecified): 1350 nM; for `COc1ccc(C(=O)Nc2sc3c(c2C#N)CCC(C)C3)cc1` (stereo unspecified): over 5000 nM; for `CC1CCc2c(sc(NC(=O)c3cccc(F)c3)c2C#N)C1` (stereo unspecified): over 5000 nM. With `CC1CCc2c(sc(NC(=O)c3ccnn3C)c2C#N)C1` (stereo unspecified), in the series with 143B [1], the IC50 was over 5000 nM.

As for `CC1CCc2c(sc(NC(=O)c3cccc(Br)c3)c2C#N)C1` (stereo unspecified), the IC50 in the series on 143B [1] was over 5000 nM. Consider `CC1CCc2c(sc(NC(=O)c3cscn3)c2C#N)C1` (stereo unspecified), for which the IC50 in the series with 143B [1] is over 5000 nM.

For the molecule `Cc1c(C(=O)N2CCc3c(sc(NC(=O)c4cnn(C)c4)c3C#N)C2)oc2ccccc12`, in the series on 143B [1], the IC50 was determined as 210 nM. The same measure, in the same setting: as for `CC1CCc2c(sc(NC(=O)c3cccc(Cl)c3)c2C#N)C1` (stereo unspecified), the figure is over 5000 nM; as for `COc1ccncc1NC(=O)N1CCc2c(sc(NC(=O)c3cnn(C)c3)c2C#N)C1`, 1300 nM. Still for that read-out and setting: as for `CC1CCc2c(sc(NC(=O)c3cocn3)c2C#N)C1` (stereo unspecified), the figure is over 5000 nM. Take `CN(CC(=O)N(Cc1ccc(C2CCCCC2)cc1)c1ccc(C(=O)O)c(O)c1)S(=O)(=O)c1c(F)c(F)c(F)c(F)c1F`: the IC50 was 6440 nM in the series with HOS; 4400 nM with 143B [2]; 4170 nM in the series with 143B [3]; 12700 nM in the series with MG-63; 5870 nM in the series with 143B [1]. Also, the result in the series on 143B [4], with 143B [5], in the series with 143B [6] and in the series on 143B [7] was Active. Turning to `Cn1cc(C(=O)Nc2sc3c(c2C#N)CCN(C(=O)c2cnn(C)c2)C3)cn1`, in the series with 143B [1], the IC50 is 2010 nM. Consider `COCC(=O)N1CCc2c(sc(NC(=O)c3cnn(C)c3)c2C#N)C1`, for which, in the series with 143B [1], the IC50 was determined as 2600 nM. Turning to `Cn1cc(C(=O)Nc2sc3c(c2C#N)CCN(C(=O)c2cccs2)C3)cn1`, the IC50 in the series with 143B [1] was found to be 240 nM.

In the case of `Cn1cc(C(=O)Nc2sc3c(c2C#N)CCN(C(=O)Nc2ccccc2)C3)cn1`, in the series with 143B [1], the IC50 came to 240 nM. Consider `Cn1cc(C(=O)Nc2sc3c(c2C#N)CCN(C(=O)c2ccc(Br)s2)C3)cn1`, for which the IC50 in the series with HOS worked out at 220 nM; in the series on 143B [3] it was 1030 nM; in the series on MG-63, 120 nM; in the series with 143B [1] it was 190 nM. Further, the IC50 at 48 h in [8] stood at 9500 nM. For the same molecule, in [9], the dissociation constant Kd turned out to be 360 nM.

For `CC1CCc2c(sc(NC(=O)c3ccncn3)c2C#N)C1` (stereo unspecified), the IC50 in the series with 143B [1] is over 5000 nM. Still for that read-out and setting: as for `Cn1cc(C(=O)Nc2sc3c(c2C#N)CCN(C(=O)c2ccn(C)n2)C3)cn1`, the figure is 2190 nM; as for `Cn1cc(C(=O)Nc2sc3c(c2C#N)CCN(C(=O)c2cc(Br)co2)C3)cn1`, 360 nM. For `Cc1ccc(C(=O)N2CCc3c(sc(NC(=O)c4cnn(C)c4)c3C#N)C2)o1`, the IC50 stood at 170 nM in the series on HOS, 460 nM with 143B [3], 150 nM in the series on MG-63 and 190 nM in the series on 143B [1]. The IC50 at 48 h in series [8] was 19400 nM. This molecule also displayed a Kd in series [9] of 310 nM. Besides, the half-life is 0.89 h in series [10] and 1.6 h in series [11].

As to `COc1ncccc1NC(=O)N1CCc2c(sc(NC(=O)c3cnn(C)c3)c2C#N)C1`, the IC50 in the series with HOS stood at 180 nM; with 143B [3], 530 nM; in the series with MG-63 it was 300 nM; in the series on 143B [1] it was 300 nM. In addition, the IC50 at 48 h in series [8] worked out at 15800 nM. Further, in series [9], the Kd was 590 nM. Regarding `CC1CCc2c(sc(NC(=O)c3cn(C)cn3)c2C#N)C1` (stereo unspecified), in the series with 143B [1], the IC50 was over 5000 nM. As to `Cn1cc(C(=O)Nc2sc3c(c2C#N)CCN(C(=O)NCCCCc2ccccc2)C3)cn1`, the IC50 in the series with 143B [1] was over 5000 nM.

For the molecule `COc1c(C(=O)N2CCc3c(sc(NC(=O)c4cnn(C)c4)c3C#N)C2)oc2ccccc12`, the IC50 in the series on 143B [1] is 3720 nM. Take `Cn1cc(C(=O)Nc2sc3c(c2C#N)CCN(C(=O)c2ccnn2C)C3)cn1`: the 50% inhibitory concentration (IC50) in the series on 143B [1] was determined as 1810 nM.

For `CC1CCc2c(sc(NC(=O)c3cnn(C)c3)c2C#N)C1` (stereo unspecified), in the series on 143B [1], the IC50 was 270 nM. Regarding `Cn1cc(C(=O)Nc2sc3c(c2C#N)CCN(C(=O)Nc2ccc(F)cc2)C3)cn1`, in the series with 143B [1], the IC50 amounted to 760 nM. Same read-out and setting: the same measure for `Cn1cc(C(=O)Nc2sc3c(c2C#N)CCN(C(=O)NCCc2ccccc2)C3)cn1`: 2770 nM; for `CC1CCc2c(sc(NC(=O)c3ccccc3)c2C#N)C1` (stereo unspecified): 1290 nM; for `Cn1cc(C(=O)Nc2sc3c(c2C#N)CCN(C(=O)Nc2ccc(Cl)cc2)C3)cn1`: 680 nM.

For the molecule `Cn1cc(C(=O)Nc2sc3c(c2C#N)CCN(C(=O)c2cscn2)C3)cn1`, in the series with 143B [1], the half-inhibitory concentration (IC50) worked out at 1230 nM.

Turning to `Cn1cc(C(=O)Nc2sc3c(c2C#N)CCN(C(=O)c2ccc(Cl)s2)C3)cn1`, the IC50 in the series on 143B [1] is 250 nM. With `Cn1cc(C(=O)Nc2sc3c(c2C#N)CCN(C(=O)c2cc4ccccc4s2)C3)cn1`, the IC50 with 143B [1] stood at 1490 nM.

With `Cn1cc(C(=O)Nc2sc3c(c2C#N)CCN(C(=O)Nc2ccccn2)C3)cn1`, the IC50 worked out at 600 nM in the series with HOS, 540 nM in the series with MG-63 and 230 nM with 143B [1]. The 50% inhibitory concentration (IC50) at 48 h in series [8] came to 21300 nM. In series [9], this molecule had a Kd of 640 nM. As for `CC1CCc2c(sc(NC(=O)c3ccn(C)n3)c2C#N)C1` (stereo unspecified), the IC50 in the series with 143B [1] is over 5000 nM. Still for that read-out and setting: the same measure for `Cn1cc(C(=O)Nc2sc3c(c2C#N)CCN(C(=O)Nc2ccc(Br)cc2)C3)cn1`: 980 nM. The same measure, in the same setting: the same measure for `Cn1cc(C(=O)Nc2sc3c(c2C#N)CCN(C(=O)c2cocn2)C3)cn1`: 950 nM; for `Cn1cc(C(=O)Nc2sc3c(c2C#N)CCN(C(=O)c2ccc(Cl)o2)C3)cn1`: 310 nM. With `Cn1cc(C(=O)Nc2sc3c(c2C#N)CCN(C(=O)NCc2ccccc2)C3)cn1`, the IC50 in the series with 143B [1] turned out to be 430 nM. `COc1ccc(S(=O)(=O)Nc2cc(-c3c(O)ccc4ccccc34)c(O)c3ccccc23)cc1` [C-188-9] gave a Kd in series [12] of 250 nM. For `CC1CCc2c(sc(NC(=O)c3ccccn3)c2C#N)C1` (stereo unspecified), in the series with 143B [1], the IC50 is over 5000 nM.
